Measured values: article PMC11380953, “Multivalent, calcium-independent binding of surfactant protein A and D to sulfated glycosaminoglycans of the alveolar epithelial glycocalyx” (American Journal of Physiology - Lung Cellular and …, 2024)

How the values were obtained:
recombinant human SP-D = test system: recombinant human SP-D; parameters: method as in van Eijk et al.; [42]; details: ref van Eijk et al., [42], read-out: IC50 mean ± SE; cited from earlier work
[1] = molecular target: T1, hSP-A (human SP-A, isolated from BAL of PAP patient) (Homo sapiens, UniProt Q8IWL1+Q8IWL2); assay: Microscale thermophoresis (MST) binding to hSP-A; details: for Kd: hSP-A, apparent KD at protein 9 nM, 25°C, read-out: KD (MST Measurements) ±Kd confidence
T1 construct: Human PAP patient, BAL isolated; from tissue; host or cells: bronchoalveolar lavage fluid of a patient with pulmonary alveolar proteinosis
Method: (§1) Human-isolated and recombinant proteins were labeled using the Monolith Protein Labeling Kit RED-NHS according to the manufacturer’s instructions. This kit reagent reacts with lysine residues present in the sequence of the protein, as the dye carries a reactive NHS-ester group. Briefly, as all the proteins were in a Tris buffer solution, the buffer solution was exchanged to a HEPES-based buffer with the A-Column provided in the kit. Then, 10 µM solution of protein was incubated with a threefold excess of dye in 100 µL for 30 min at room temperature protected from light. The labeled protein was separated from the free dye using the B-Column provided in the kit. The concentration of the labeled protein {c(M) = [A205 − (A650 × 0.19)]/[31 × MWprotein]) and the degree of labeling [DOL = A650/(195.000 M^−1cm^−1 × c(M)] were calculated according to the manufacturer’s instruction, measuring absorption at 205 nm (for the protein) and 650 nm (for the dye).
(§2) Thermophoresis is the phenomenon of movement of particles along a temperature gradient. Solvated molecules move from higher to lower temperature. This movement or depletion of molecules from the heat is quantified by the Soret coefficient ST: Chot/Ccold = exp (−STΔT). The depletion of molecules depends on the interface between molecule and solvent. Therefore, thermophoresis monitors changes in size, charge, and solvation entropy of molecules. In this regard, the thermophoresis or movement of a protein is different from a protein-ligand complex ([35]). Microscale or miniaturized thermophoresis allows to monitor molecular interaction in only a few microliters. For this method, the fluorescently labeled protein is mixed with a decreasing concentration of a ligand in 16 glass capillaries. The initial fluorescence is measured (Fcold), then an infrared (IR) laser beam is switched on and focused on the center of the first capillary, where the temperature gradient is created from the center to the walls of the capillary. At the same time, a dichroic mirror allows fluorescence from the labeled protein to be monitored (Fhot). The rate of fluorescence change is related to the amount of protein-ligand complex form, which depends on the ligand concentration, due to changes in size, charge, or hydration shell of the protein-ligand complex. The dissociation constant KD is calculated from the binding curve derived by plotting the normalized fluorescence (FNorm) at a given time after the start of the thermophoresis against the respective ligand concentration ([33], [34], [36]).
(§3) Samples were measured in a Monolith NT.115, using Premium Capillaries (MO-K025) and Monolith Protein labeling kit RED-NHS (MO-L011) all from NanoTemper Technologies (Munich, Germany). Solutions of a 3X concentrated MST buffer (15 mM Tris, 300 mM NaCl, 0.3% Tween 20, 15 mM CaCl2, pH 7.4), sugars (270 mM) or GAG (30 µM) solution, and protein solution (27 nM) were prepared separately. When a different concentration was used, a threefold concentration of the solution was prepared. Afterward, sugars and GAG solutions were diluted 1:2 with water in a series of 16 steps. For the measurement, 3 µL of each prepared component (3 µL MST buffer, 3 µL GAG solution, and 3 µL labeled protein) was mixed, centrifuged shortly to eliminate precipitates, and loaded into a glass capillary. The final concentrations of the sugars were thus between 90 –and 0.00275 mM or GAGs 10 and 0.000305 µM for GAGs, respectively. The 16 capillaries were loaded in the Monolith NT.115 and measurements were performed with a 40% LED power and medium MST power at 25°C.
(§4) Every set of 16 capillaries was prepared in 3–6 replicates (technical replicates) and measured. The replicate measures of every capillary were plotted against concentration and outliers were excluded, using the MO Affinity Analysis 3 v01 software (NanoTemper Technologies, Munich, Germany). […]

[2] = molecular target: T2, rhSP-D (human recombinant SP-D) (Homo sapiens, UniProt P35247); assay: Microscale thermophoresis (MST) binding to rhSP-D; details: apparent KD at protein 9 nM, 25°C, read-out: KD (MST Measurements) ±Kd confidence
T2 construct: host or cells: CHO cells
T2 sequence (P35247 21-375): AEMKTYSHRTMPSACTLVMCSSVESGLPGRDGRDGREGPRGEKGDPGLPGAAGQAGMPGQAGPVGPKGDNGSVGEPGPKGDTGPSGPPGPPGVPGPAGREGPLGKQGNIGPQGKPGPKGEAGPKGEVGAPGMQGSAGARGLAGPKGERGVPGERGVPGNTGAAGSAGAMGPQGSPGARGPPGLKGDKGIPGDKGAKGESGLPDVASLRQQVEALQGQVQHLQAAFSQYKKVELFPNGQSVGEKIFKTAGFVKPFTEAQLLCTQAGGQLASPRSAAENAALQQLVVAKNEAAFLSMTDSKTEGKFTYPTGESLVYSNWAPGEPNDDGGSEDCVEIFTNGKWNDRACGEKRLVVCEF
Method: as §1, §2, §3, §4

human SP-D = test system: human SP-D; parameters: method as in Lu et al.; [19]; details: ref Lu et al., [19]; cited from earlier work
[3] = test system: recombinant construct containing the N-terminal tagged fusion protein +neck and CRD of human SP-D; parameters: method as in Crouch et al. 2006 [47]; details: ref Crouch et al. 2006 [47], read-out: I50 mean ± SE; cited from earlier work
human SP-A [4] = test system: human SP-A; parameters: method as in Haagsman et al.; [18]; details: ref Haagsman et al., [18]; cited from earlier work
human SP-A [5] = test system: human SP-A; parameters: method as in Haurum et al.; [41]; details: ref Haurum et al., [41], read-out: IC50 mean ±SD; cited from earlier work

T1 sequence (Q8IWL2 21-248): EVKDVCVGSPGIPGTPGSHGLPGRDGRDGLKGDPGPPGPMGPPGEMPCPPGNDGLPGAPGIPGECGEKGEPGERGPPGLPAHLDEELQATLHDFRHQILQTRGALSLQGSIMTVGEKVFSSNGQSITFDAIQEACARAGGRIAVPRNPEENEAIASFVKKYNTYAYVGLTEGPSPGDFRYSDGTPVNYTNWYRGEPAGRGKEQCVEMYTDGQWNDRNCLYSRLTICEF
T1 sequence (Q8IWL1 21-248): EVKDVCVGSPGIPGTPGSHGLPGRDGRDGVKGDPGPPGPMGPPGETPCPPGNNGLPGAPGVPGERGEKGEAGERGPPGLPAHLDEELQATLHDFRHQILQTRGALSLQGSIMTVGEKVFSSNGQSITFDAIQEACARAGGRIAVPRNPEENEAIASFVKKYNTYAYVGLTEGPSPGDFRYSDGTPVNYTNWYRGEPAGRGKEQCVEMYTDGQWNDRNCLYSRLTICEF

| SMILES | Kd [1] [mM] | Kd [2] [mM] | binding of hSP-A to sugar, calcium dependence ([1]; MST, 0-10 mM calcium, 0-20 mM EDTA (Fig. 1D, E)) | IC50 (recombinant human SP-D) [mM] | IC50 (human SP-D) [mM] | IC50 [3] [mM] | Amount of SP-A bound (human SP-A [4]) [%] | IC50 (human SP-A [5]) [mM] |
| --- | --- | --- | --- | --- | --- | --- | --- | --- |
| CC(=O)N[C@@H]1[C@@H](O)[C@H](O)[C@@H](CO)O[C@@H]1O [GlcNAc, N-acetyl-D-glucosamine] | 0.16 | 0.13 |  | 13.5 ± 4.5 | 28.5 | 14 ± 2 | 2 |  |
| CC(=O)N[C@@H]1C(O)O[C@H](CO)[C@@H](O)[C@@H]1O (stereo partly drawn) [ManNAc, N-acetyl-D-mannosamine monohydrate] | 0.06 | 5.39 |  | 1.8 ± 0.3 |  | 2.1 ± 0.4 |  | 8 ± 1 |
| OC[C@H]1OC(O)[C@@H](O)[C@@H](O)[C@@H]1O (stereo partly drawn) [Man, D(+)-mannose] | 0.14 | 0.02 |  | 2.9 ± 0.4 | 7.5 | 5.3 ± 0.5 | 95 ± 10 | 39 ± 3 |
| OC[C@H]1O[C@H](O[C@H]2[C@H](O)[C@@H](O)[C@H](O)O[C@@H]2CO)[C@H](O)[C@@H](O)[C@@H]1O [Maltose, D(+)-maltose] | 0.03 | 0.45 |  | 4.1 ± 0.9 | 5.1 | 2.7 ± 0.4 |  | 23 ± 5 |
| CC(=O)N[C@H]1C(O)O[C@H](CO)[C@H](O)[C@@H]1O (stereo partly drawn) [GalNAc, N-acetyl-D-galactosamine] | 7.27 | 0.39 |  |  |  |  | 7 |  |
| OC[C@@H]1OC(O)[C@@H](O)[C@H](O)[C@H]1O (stereo partly drawn) [Glc, L(−)-glucose] | 1.39 | 0.12 |  | 4 ± 1 | 9.6 | 4.1 ± 0.9 | 100 | 30 ± 1 |

Further lines, with some results ahead:

| Kd [1] [mM] | Kd [2] [mM] | binding of hSP-A to sugar, calcium dependence ([1]; MST, 0-10 mM calcium, 0-20 mM EDTA (Fig. 1D, E)) | SMILES | IC50 (recombinant human SP-D) [mM] | IC50 (human SP-D) [mM] | IC50 [3] [mM] | Amount of SP-A bound (human SP-A [4]) [%] | IC50 (human SP-A [5]) [mM] |
| --- | --- | --- | --- | --- | --- | --- | --- | --- |
| 1.94 | 0.82 | only seen in the presence of calcium | O=C[C@H](O)[C@@H](O)[C@@H](O)[C@H](O)CO [Gal, D(+)-galactose] | 7.9 ± 3.8 | 22 | 10 ± 2 | 100 |  |
| 4.07 | 0.37 |  | C[C@H](O)[C@@H](O)[C@@H](O)[C@H](O)C=O [Fuc, L-fucose] | 4.4 ± 0.1 | 6.5 |  | 100 | 22 ± 1 |
| 0.09 | 0.005 |  | O=C[C@H](O)[C@@H](O)[C@H](O)[C@H](O)C(=O)O [GlcAc, D-glucuronic acid] |  |  |  |  |  |
| 0.21 | 0.27 |  | CC(=O)N[C@H]1[C@H]([C@H](O)[C@H](O)CO)OC(O)(C(=O)O)C[C@@H]1O (stereo partly drawn) [Neu5Ac, N-acetyl-neuraminic acid] |  |  |  |  |  |
